Experimental data: patent US9988644B2, “Compounds for improved viral transduction” (bluebird bio, Inc., priority 2011, dated 2018)

How the values were obtained:
CD34+ cells [1] = assay: 7-Day liquid culture, FACS for GFP after transduction with GFP+ lentivirus in presence of dmPGE2; assay type: cell-based, human; settings: for % Positive (GFP): ~1 week in culture
Description: (§1) One vial of CD34+ cells (AllCells) were thawed by incubating at 37° C. for 1-2 minutes and contents were transferred to 10 mL Stem Cell Growth Media (hereafter referred to as SCGM) in a 15-mL conical tube. Cells were spun for 5 minutes at 1500 RPM in a standard tabletop centrifuge, resuspended in 10 mL SCGM and counted on a hemacytometer. A volume correlating with an appropriate number of cells was transferred to a fresh 15-mL conical tube, and again spun for 5 minutes at 1500 RPM. Cells were resuspended to the desired cell concentration in SCGM+1× cytokines (100 ng/mL SCF, 100 ng/mL TPO, 100 ng/mL FltL, and 30 ng/mL IL-3), and plated on a sterile non-adherent surface at 37° C. in a standard humidified tissue culture incubator (5% CO2).
(§2) Pre-stimulated cells (Example 1) were counted after 18-24 hours of culture. The cells were collected and spun for 5 minutes at 1500 RPM. 1.2×10^6 pre-stimulated CD34^+ cells were resuspended in 60 uL 10× cytokines (1000 ng/mL SCF, 1000 ng/mL TPO, 1000 ng/mL FltL, and 300 ng/mL IL-3), 7.8 uL protamine sulfate, 111 uL viral supernatant, and 361.2 uL SCGM. 90 uL cell/virus suspension (about 200,000 cells) was added to each well of a standard non-adherent 96-well plate. dmPGE2 was added during this viral transduction step at a final concentration of 100 uM, 50 uM, 25 uM, 12.5 uM, 1 uM, or 0 uM.
(§3) Aliquots of 10 mM dmPGE2 in DMSO were prepared from 1 mg previously processed dmPGE2 (Cayman Chemicals). Briefly, air was pipetted into the vial of dmPGE2 until methyl acetate was evaporated. 263 uL DMSO was added to the PGE2 remaining in the vial, and aliquots of 25 uL were added to 1.5 mL Eppendorf tubes and stored at −80° C. 10× working stock solutions were prepared by serial dilution of dmPGE2 in SCGM, and were then added to cells at appropriate working concentrations, according to Table 2. Cells were then incubated at 37° C. in a standard humidified tissue culture incubator (5% CO2).
(§4) After 24 hours of culture with virus and dmPGE2, cells were washed prior to subsequent functional validation assays. Washing was performed by transferring cells to a 96-well U-bottom plate and spinning for 5 minutes at 1500 RPM in a standard tabletop centrifuge. Media was aspirated and cells were resuspended in 200 uL SCGM. Cells were spun again for 5 minutes at 1500 RPM and media was aspirated. Cells were again resuspended in 200 uL SCGM then spun for 5 minutes at 1500 RPM, and again the media was aspirated. Particular functional validation assays are described below.
(§5) Washed cells were resuspended in 200 uL SCGM+1× cytokines (as described in Example 1) and transferred to a standard 12-well non-adherent tissue culture plate containing an additional 800 uL SCGM+1× cytokines Cells were maintained for an additional 6 days in a standard humidified tissue culture incubator (5% CO2) and then subjected Vector Copy Number analysis (Example 5) and FACS analysis. For FACS analysis, cells were assayed for the presence of a virally-encoded transgene, green fluorescent protein (GFP). The frequency of the virally-labeled cells within the pool of cultured cells was quantified as the frequency of GFP+ cells within the population. The mean fluorescence intensity of labeled cells was quantified.
Tables 3A-C indicate the dose-response of dmPGE2 in promoting viral transduction of CD34+ cells for three separate experiments. CD34+ cells were thawed and pre-stimulated with SCF, TPO, FltL, and IL3, then transduced (A) with GFP+ lentivirus at a multiplicity of infection of 25, (B) with GFP+ lentivirus at a multiplicity of infection of 5, or (C) transduced with an ALD (ABCD1)-expressing lentivirus at a multiplicity of infection of 25. Cells were exposed to dmPGE2 during the viral transduction step (24-48 hours of culture). Cells were then washed and analyzed by flow cytometry and PCR after approximately 1 week in culture. […]

CD34+ cells [2] = assay: FACS staining for ALD after transduction with ALD (ABCD1)-expressing lentivirus in presence of dmPGE2; assay type: cell-based, human; settings: ABCD1 MOI 25
Description: as §1, §2, §3, §4, §5
Tables 3A-C indicate the dose-response of dmPGE2 in promoting viral transduction of CD34+ cells for three separate experiments. […] Cells were then washed and analyzed by flow cytometry and PCR after approximately 1 week in culture. […]

## CCCCC(C)(C)[C@H](O)/C=C/[C@H]1[C@H](O)CC(=O)[C@@H]1C/C=C\CCCC(=O)O [dmPGE2, 16,16-dimethyl PGE2]
CD34+ cells [1]; dmPGE2 12.5 uM during transduction (24-48 hours of culture), GFP MOI 5
  % Positive (GFP): 17.84%
CD34+ cells [1]; dmPGE2 12.5 uM during transduction (24-48 hours of culture), GFP MOI 25
  % Positive (GFP): 54.71%
CD34+ cells [1]; dmPGE2 12.5 uM during transduction, GFP MOI 5
  MFI (mean fluorescent intensity): 530,218.50
CD34+ cells [1]; dmPGE2 12.5 uM during transduction, GFP MOI 25
  MFI (mean fluorescent intensity): 759,442.75
CD34+ cells [1]; dmPGE2 25 uM during transduction (24-48 hours of culture), GFP MOI 5
  % Positive (GFP): 18.69%
CD34+ cells [1]; dmPGE2 25 uM during transduction (24-48 hours of culture), GFP MOI 25
  % Positive (GFP): 59.99%
CD34+ cells [1]; dmPGE2 25 uM during transduction, GFP MOI 5
  MFI (mean fluorescent intensity): 562,428.00
CD34+ cells [1]; dmPGE2 50 uM during transduction (24-48 hours of culture), GFP MOI 5
  % Positive (GFP): 36.80%
CD34+ cells [1]; dmPGE2 50 uM during transduction (24-48 hours of culture), GFP MOI 25
  % Positive (GFP): 67.62%
CD34+ cells [1]; dmPGE2 50 uM during transduction, GFP MOI 5
  MFI (mean fluorescent intensity): 656,703.50
CD34+ cells [1]; dmPGE2 50 uM during transduction, GFP MOI 25
  MFI (mean fluorescent intensity): 977,806.75
CD34+ cells [1]; dmPGE2 100 uM during transduction (24-48 hours of culture), GFP MOI 5
  % Positive (GFP): 42.97%
CD34+ cells [1]; dmPGE2 100 uM during transduction (24-48 hours of culture), GFP MOI 25
  % Positive (GFP): 81.53%
CD34+ cells [1]; dmPGE2 100 uM during transduction, GFP MOI 5
  MFI (mean fluorescent intensity): 732,716.25
CD34+ cells [1]; dmPGE2 100 uM during transduction, GFP MOI 25
  MFI (mean fluorescent intensity): 1,513,504.00
CD34+ cells [2]; dmPGE2 1 uM during transduction (24-48 hours of culture)
  % Positive (ALD via FACS staining): 34.13%
CD34+ cells [2]; dmPGE2 12.5 uM during transduction (24-48 hours of culture)
  % Positive (ALD via FACS staining): 45.36%
CD34+ cells [2]; dmPGE2 25 uM during transduction (24-48 hours of culture)
  % Positive (ALD via FACS staining): 43.76%
CD34+ cells [2]; dmPGE2 50 uM during transduction (24-48 hours of culture)
  % Positive (ALD via FACS staining): 56.10%
CD34+ cells [2]; dmPGE2 100 uM during transduction (24-48 hours of culture)
  % Positive (ALD via FACS staining): 72.26%
